Reference: US11680082B2, “Conjugates of montelukast and peptides” (ENLITISA (SHANGHAI) PHARMACEUTICAL CO., LTD, priority 2018, dated 2023)
Non-standard residues stand in square brackets, D forms with d. No end group written: not given here. Hyp = O=C(O)[C@@H]1C[C@@H](O)CN1

Experiments:
diabetic skin wound [1] = assay: Diabetic wound model I; type: in vivo, db/db mice (C57BL/KsJ-db/db); details: histology
Procedure: A similar experiment with essentially the same protocol to that described in Example 6 above was carried out on 8 to 12 week-old male db/db mice (C57BL/KsJ-db/db), with a body weight of 35-45 g/mouse (Changzhou Cvens Experimental Animal Co. Ltd.).
An EMS skin biopsy punch with a 18 mm diameter was used to make wounds.
Different drugs were administrated topically at 50 μL/wound, once daily from Day 0 to Day 12. The model group was given same amount of normal saline.
Photographs were taken for each wound every other day from Day 0. Photos were scanned into a computer, and wound areas calculated using ImageJ image analysis software (National Institute of Health, USA).
The unhealed wound area was expressed as a percentage of the original wound area: At/A0×100%, where A0 and At refer to the initial area at Day 0 and the wound area at the date of measurement (time t), respectively.
Histological specimens were analyzed and skin regeneration, fibroblast proliferation, collagen regeneration scores (Masson score) and inflammation scores were estimated as follows.
The HE and Masson stained slices were observed under an optical microscope and were scored (1, 2 or 3 points) according to the following criteria. […]

[2] = tested on: xylene induced ear swelling; assay: Mouse ear swelling model I (xylene); type: in vivo, BALB/c mice; details: xylene on right ear, topical treatment, 40 minutes; (right ear weight−left ear weight)/left ear weight
Procedure: The mice were randomly divided into 7 groups as described in Table 1 below, with 5 mice in each group
The left ear of each mouse was used as autologous control. 20 μL of xylene (Shanghai Aladdin Bio-Chem Technology Co., Ltd., Shanghai, China) was applied to the right ear of each mouse, both inside and outside. The ear started to swell in about 4 minutes. Then, 0.08 g of each study treatments or vehicles were applied to the right ears in each group. The mice were put back into their cages.
Vehicle-1 in Table 1 below is the cream base without active ingredients. Vehicle-2 in Table 1 below is the gel base without active ingredients.
The mice were sacrificed by cervical dislocation after 40 minutes. The left and right ears were cut off. A skin pouch (Electron Microscopy Sciences, Hatfield, Pa., USA) with a diameter of 8 mm was used to take a piece of the ear from the same site of both ears.

diabetic skin wound [3] = assay: Diabetic wound model II; type: in vivo, db/db mice (C57BL/KsJ-db/db)
Procedure: A similar experiment with essentially the same protocol to that described in Example 7 above was carried out on 8 to 12 week-old male db/db mice (C57BL/KsJ-db/db) with a body weight of 35-45 g/mouse (Changzhou Cvens Experimental Animal Co. Ltd.).
Different concentrations of Compound A and Compound 1 (“A” and “1” respectively, as indicated in the Table 5 below) were prepared in substantially the same way as described in Examples 6 and 7 above.
Different drugs were administrated topically at 50 μL/wound, once daily from Day 0 to Day 12, as show in Table 5 below.
The model group was given same amount of normal saline. There were 8 mice in each group. 4 mice were in the control group. The skin pieces taken during wound creation were used as the samples at Day 7 for the control group.
Histological specimens were analyzed as described in Example 7 above, except that the collagen deposition score criterion for the Masson stained sample were as follows. A comparison was made with normal tissue. No clear blue staining was given 0 points; blue fiber appearing in a scattered pattern was scored as 1 points; if more blue fiber appeared, this was scored as 2 points, and a diffuse blue colour was given 3 points.

[4] = tested on: phenol red excretion in trachea; assay: Expectorant experiment, phenol red excretion method; type: in vivo, mice; details: Positive control, 0.15 g/kg intragastric, 5 days
Procedure: 50 Mice were randomly divided into 5 groups according to body weight: Normal saline, negative control group, ammonium chloride positive control group and high, medium and low dose of test drug (either Compound A, above, or Compound E, below). 10 mice in each group, 5 males and 5 females.
Compound A was administered via atomization inhalation (0.15 mL/min) for 1 min, once daily for 5 days and the positive control drug was administered by intragastric administration for 5 days.
Half an hour after the last administration of Compound A, 5% phenol red solution was injected into the abdominal cavity. The mice were sacrificed after a further half an hour. The skin of the neck was removed and the trachea from the thyroid cartilage to the bifurcation was separated, soaked it in 5% sodium bicarbonate solution with constant shaking. The sodium bicarbonate solution was used to detect the phenol red content.
The absorbance at 558 nm was detected by spectrophotometry (721G Spectrophotometer, Shanghai Jingke, Shanghai, China). The optical density value was used to calculate the phenol red content In the trachea by reference to the phenol red standard curve. The results of each group and the negative control group were tested for significant t-test.

Q: How did the Fibroblast proliferation score (diabetic skin wound [1]) turn out when “Ala-Lys-Pro-Ser-Tyr-Hyp-Hyp-Thr-Tyr-Lys (AKPSY[Hyp][Hyp]TYK; not fully specified; printed as Ala-Lys-Pro-Ser-Tyr-Hyp-Hyp-Thr-Tyr-Lys) [Compound 1]” was run?
A: could promote

Q: And the Skin regeneration score (diabetic skin wound [1])?
A: could promote the skin regeneration

Q: What about the Swelling rate [2] of the same compound?
A: 61.5%

Q: And the “ratio of remaining wound area of initial wound (Mean)” value (diabetic skin wound [3]; high dose (H), D1)?
A: 1.000

Q: What about the “ratio of remaining wound area of initial wound (Mean)” value (diabetic skin wound [3]; high dose (H), D2) of the same compound?
A: 1.051

Q: And the “ratio of remaining wound area of initial wound (Mean)” value (diabetic skin wound [3]; high dose (H), D4)?
A: 0.821

Q: What about the “ratio of remaining wound area of initial wound (Mean)” value (diabetic skin wound [3]; high dose (H), D6) of the same compound?
A: 0.718

Q: And the “ratio of remaining wound area of initial wound (Mean)” value (diabetic skin wound [3]; high dose (H), D8)?
A: 0.486

Q: What about the “ratio of remaining wound area of initial wound (Mean)” value (diabetic skin wound [3]; high dose (H), D10) of the same compound?
A: 0.478

Q: And the “ratio of remaining wound area of initial wound (Mean)” value (diabetic skin wound [3]; high dose (H), D12)?
A: 0.368

Q: And the “ratio of remaining wound area of initial wound (Mean)” value (diabetic skin wound [3]; low dose (L), D1)?
A: 1.000

Q: What about the “ratio of remaining wound area of initial wound (Mean)” value (diabetic skin wound [3]; low dose (L), D2) of the same compound?
A: 0.860

Q: And the “ratio of remaining wound area of initial wound (Mean)” value (diabetic skin wound [3]; low dose (L), D4)?
A: 0.753

Q: What about the “ratio of remaining wound area of initial wound (Mean)” value (diabetic skin wound [3]; low dose (L), D6) of the same compound?
A: 0.593

Q: And the “ratio of remaining wound area of initial wound (Mean)” value (diabetic skin wound [3]; low dose (L), D8)?
A: 0.467

Q: What about the “ratio of remaining wound area of initial wound (Mean)” value (diabetic skin wound [3]; low dose (L), D10) of the same compound?
A: 0.433

Q: And the “ratio of remaining wound area of initial wound (Mean)” value (diabetic skin wound [3]; low dose (L), D12)?
A: 0.306

Q: And the wound healing (diabetic skin wound [3]; low dose, earlier stages after wound infliction)?
A: prompted wound healing in the earlier stages

Q: What about the “ratio of remaining wound area of initial wound (Mean)” value (diabetic skin wound [3]; medium dose (M), D1) of the same compound?
A: 1.000

Q: And the “ratio of remaining wound area of initial wound (Mean)” value (diabetic skin wound [3]; medium dose (M), D2)?
A: 0.991

Q: What about the “ratio of remaining wound area of initial wound (Mean)” value (diabetic skin wound [3]; medium dose (M), D4) of the same compound?
A: 0.895

Q: And the “ratio of remaining wound area of initial wound (Mean)” value (diabetic skin wound [3]; medium dose (M), D6)?
A: 0.786

Q: And the “ratio of remaining wound area of initial wound (Mean)” value (diabetic skin wound [3]; medium dose (M), D8)?
A: 0.552

Q: What about the “ratio of remaining wound area of initial wound (Mean)” value (diabetic skin wound [3]; medium dose (M), D10) of the same compound?
A: 0.490

Q: What about the “ratio of remaining wound area of initial wound (Mean)” value (diabetic skin wound [3]; medium dose (M), D12) of the same compound?
A: 0.344

Q: With `Cl.N` [NH4Cl, ammonium chloride] as the compound, how does the “Phenol red concentration” value [4] read?
A: 10.335 ± 0.337 µg/mL
